Experimental data taken from patent US6426331B1, “Inhibitors of STAT function” (Tularik Inc., priority 1998, dated 2002).

Target: T1, STAT6 (Homo sapiens, UniProt P42226)
T1 sequence (P42226 1-847): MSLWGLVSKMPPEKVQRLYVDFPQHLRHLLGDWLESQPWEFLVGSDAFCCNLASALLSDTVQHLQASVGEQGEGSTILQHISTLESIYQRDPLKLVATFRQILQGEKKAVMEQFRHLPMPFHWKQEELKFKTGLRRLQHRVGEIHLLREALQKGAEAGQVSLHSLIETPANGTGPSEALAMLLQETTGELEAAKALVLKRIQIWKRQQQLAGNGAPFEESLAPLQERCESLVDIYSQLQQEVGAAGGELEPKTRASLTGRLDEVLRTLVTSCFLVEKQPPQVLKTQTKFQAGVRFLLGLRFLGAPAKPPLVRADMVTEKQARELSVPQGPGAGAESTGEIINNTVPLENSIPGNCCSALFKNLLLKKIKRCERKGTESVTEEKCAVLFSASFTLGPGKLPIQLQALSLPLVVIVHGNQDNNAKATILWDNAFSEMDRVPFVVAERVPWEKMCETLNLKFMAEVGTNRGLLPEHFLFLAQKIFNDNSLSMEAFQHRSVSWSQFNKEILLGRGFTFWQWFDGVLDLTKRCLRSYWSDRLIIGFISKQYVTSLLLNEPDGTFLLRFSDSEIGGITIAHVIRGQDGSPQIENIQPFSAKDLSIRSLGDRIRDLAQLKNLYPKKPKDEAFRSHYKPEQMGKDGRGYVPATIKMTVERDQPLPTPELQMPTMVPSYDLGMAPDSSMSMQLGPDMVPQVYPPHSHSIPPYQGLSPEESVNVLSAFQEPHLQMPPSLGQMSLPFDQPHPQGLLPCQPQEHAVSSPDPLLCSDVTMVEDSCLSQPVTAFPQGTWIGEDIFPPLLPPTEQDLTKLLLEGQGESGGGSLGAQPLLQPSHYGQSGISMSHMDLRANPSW
Assay: Inhibition of STAT6 binding (duplex formation)
Description: The compounds of the present invention can be evaluated for STAT binding activity using methods such as those described in U.S. Pat. No. 6,207,391 (for STAT6 binding). Other assays for STAT binding can be found in, for example, U.S. Pat. Nos. 5,618,693, 5,639,858 and 5,756,700.
Using methods similar to those described in Examples 1 and 2, the compounds provided in Table 1 were prepared and evaluated as inhibitors of STAT6 binding (duplex formation). The assay is described in U.S. Pat. No. 6,207,391, filed Mar. 31, 1998. In each of the tables below: a + symbol indicates and IC50 of >100 μM; a ++ symbol indicates and IC50 of 50-100 μM; a +++ symbol indicates and IC50 of 1-50 μM; and a ++++ symbol indicates and IC50 of <1.0 μM.

[1] = Table 1, inhibitors of STAT6 binding (duplex formation)

Row | IC50 [1] [µM] | SMILES | IC50 (Table 3, STAT6 binding) [µM] | other results
1 | > 100 | Cc1ccc(S(=O)(=O)N[C@@H]2C[C@@H](C(=O)N(Cc3ccccc3)c3ccc(C(N)=O)cc3)N(C(=O)[C@@H](NC(=O)/C=C/c3ccc(C(O)C(=O)O)cc3)C(C)(C)C)C2)cc1 (stereo partly drawn) [drawing 46: H, —NH-Tosyl, 4-CONH2, H] | – | –
2 | 1 to 50 | CC(=O)N[C@@H]1C[C@@H](C(=O)N(Cc2ccccc2)c2ccc(C(N)=O)cc2)N(C(=O)[C@@H](NC(=O)/C=C/c2ccc(C(O)C(=O)O)cc2)C(C)(C)C)C1 (stereo partly drawn) [drawing 46: H, —NHAc, 4-CONH2, H] | – | –
3 | 1 to 50 | CC(C)(C)[C@H](NC(=O)/C=C/c1ccc(C(O)C(=O)O)cc1)C(=O)N1C[C@H](NC(=O)c2ccccc2)C[C@H]1C(=O)N(Cc1ccccc1)c1ccc(C(N)=O)cc1 (stereo partly drawn) [drawing 46: H, —NHBz, 4-CONH2, H] | – | –
4 | 1 to 50 | CC(C)(C)[C@H](NC(=O)/C=C/c1ccc(C(O)C(=O)O)cc1)C(=O)N1C[C@H](NC(=O)OCc2ccccc2)C[C@H]1C(=O)N(Cc1ccccc1)c1ccc(C(N)=O)cc1 (stereo partly drawn) [drawing 46: H, —NHCO2Bn, 4-CONH2, H] | – | –
5 | 1 to 50 | CC(C)C(=O)N[C@@H]1C[C@@H](C(=O)N(Cc2ccccc2)c2ccc(C(N)=O)cc2)N(C(=O)[C@@H](NC(=O)/C=C/c2ccc(C(O)C(=O)O)cc2)C(C)(C)C)C1 (stereo partly drawn) [drawing 46: H, —NHCOCH(CH3)2, 4-CONH2, H] | – | –
6 | 1 to 50 | CC(C)(C)[C@H](NC(=O)/C=C/c1ccc(C(O)C(=O)O)cc1)C(=O)N1C[C@H](NS(C)(=O)=O)C[C@H]1C(=O)N(Cc1ccccc1)c1ccc(C(N)=O)cc1 (stereo partly drawn) [drawing 46: H, —NHSO2CH3,4-CONH2, H] | – | –
7 | 1 to 50 | CC(=O)N[C@H]1C[C@@H](C(=O)N(Cc2ccccc2)c2ccc(C(N)=O)cc2)N(C(=O)[C@@H](NC(=O)/C=C/c2ccc(C(O)C(=O)O)cc2)C(C)(C)C)C1 (stereo partly drawn) [drawing 46: —NHAC, H, 4-CONH2, H] | – | –
8 | – | Cc1ccc(N(C(=O)C2CCCN2C(=O)C(NC(=O)C=Cc2ccc(OP(=O)(O)O)cc2)C(C)(C)C)c2ccccc2)cc1 (stereo not drawn) [drawing 69: CH3] | < 1 | –
9 | – | COC(=O)c1ccc(N(C(=O)C2CCCN2C(=O)C(NC(=O)C=Cc2ccc(OP(=O)(O)O)cc2)C(C)(C)C)c2ccccc2)cc1 (stereo not drawn) [drawing 69: CO2CH3] | < 1 | –
10 | – | CC(C)(C)C(NC(=O)C=Cc1ccc(OP(=O)(O)O)cc1)C(=O)N1CCCC1C(=O)N(c1ccccc1)c1ccc(C(=O)O)cc1 (stereo not drawn) [drawing 69: CO2H] | 1 to 50 | –
11 | – | CC(C)(C)C(NC(=O)C=Cc1ccc(OP(=O)(O)O)cc1)C(=O)N1CCCC1C(=O)N(c1ccccc1)c1ccc(C(N)=O)cc1 (stereo not drawn) [drawing 69: CONH2] | < 1 | –
12 | – | CC(C)(C)C(NC(=O)C=Cc1ccc(OP(=O)(O)O)cc1)C(=O)N1CCCC1C(=O)N(c1ccccc1)c1ccc(Cl)cc1 (stereo not drawn) [drawing 69: Cl] | < 1 | –
13 | – | CC(C)(C)C(NC(=O)C=Cc1ccc(OP(=O)(O)O)cc1)C(=O)N1CCCC1C(=O)N(c1ccccc1)c1ccccc1 (stereo not drawn) [drawing 69: H] | < 1 | –
14 | – | CC(C)(C)C(NC(=O)C=Cc1ccc(OP(=O)(O)O)cc1)C(=O)N1CCCC1C(=O)N(c1ccccc1)c1ccc(I)cc1 (stereo not drawn) [drawing 69: I] | < 1 | –
15 | – | COc1ccc(N(C(=O)C2CCCN2C(=O)C(NC(=O)C=Cc2ccc(OP(=O)(O)O)cc2)C(C)(C)C)c2ccccc2)cc1 (stereo not drawn) [drawing 69: OCH3] | < 1 | –
16 | – | CC(=O)NCc1cccc(N(Cc2ccc(C(N)=O)cc2)C(=O)C2CCCN2C(=O)C(NC(=O)C=Cc2ccc(OP(=O)(O)O)cc2)C(C)(C)C)c1 (stereo not drawn) [drawing 70: 3-CH2NHAc, 4-CONH2] | – | IC50 (Table 4, STAT6 binding): < 1 µM
17 | – | CC(=O)NCc1ccc(CN(C(=O)C2CCCN2C(=O)C(NC(=O)C=Cc2ccc(OP(=O)(O)O)cc2)C(C)(C)C)c2cccc(C(N)=O)c2)cc1 (stereo not drawn) [drawing 70: 3-CONH2,4-CH2NHAc] | – | IC50 (Table 4, STAT6 binding): < 1 µM
18 | – | CC(=O)NCc1ccc(N(Cc2ccc(C(N)=O)cc2)C(=O)C2CCCN2C(=O)C(NC(=O)C=Cc2ccc(OP(=O)(O)O)cc2)C(C)(C)C)cc1 (stereo not drawn) [drawing 70: 4-CH2NHAc, 4-CONH2] | – | IC50 (Table 4, STAT6 binding): < 1 µM
19 | – | CC(=O)NCc1ccc(CN(C(=O)C2CCCN2C(=O)C(NC(=O)C=Cc2ccc(OP(=O)(O)O)cc2)C(C)(C)C)c2ccc(C(N)=O)cc2)cc1 (stereo not drawn) [drawing 70: 4-CONH2,4-CH2NHAc] | – | IC50 (Table 4, STAT6 binding): < 1 µM
20 | – | CC(C)(C)C(NC(=O)C=Cc1ccc(OP(=O)(O)O)cc1)C(=O)N1CCCC1C(=O)N(Cc1ccc(I)cc1)c1ccccc1 (stereo not drawn) [drawing 70: H, 4-I] | – | IC50 (Table 4, STAT6 binding): < 1 µM
21 | – | CC(C)(C)C(NC(=O)C=Cc1ccc(OP(=O)(O)O)cc1)C(=O)N1CCCC1C(=O)N(Cc1ccc(-c2ccccc2)cc1)c1ccccc1 (stereo not drawn) [drawing 70: H, 4-phenyl] | – | IC50 (Table 4, STAT6 binding): 1 to 50 µM
